Here are results for four compounds from patent US10550190B2 (Merck Sharp & Dohme Corp., priority 2014, dated 2020).

Like-named read-outs stand apart in the source and are kept apart here.

A word on the solubility: it is the dissolved amount per volume that the medium holds. Higher therefore signals much dissolved substance.

The nature of series [1]: In vitro stability, human whole blood incubation.
Method: Human blood was collected the morning of the experiment from at least 3 individuals using K2EDTA as the anticoagulant. An equal volume from each individual was combined for use in the experiment. The experiment started no more than 2 hours after the blood collection. All drug-linker conjugates were solubilized in DMSO to form each 10 mM stock solution. Dosing solution for each linker was prepared by serial dilution of each stock solution using 1:3 acetonitrile:water. All solutions were kept on ice during the experiment.
Human blood was pre-warmed in a 37° C. water bath in an appropriate volume to collect samples over a time course from 0 through 6 hours. Incubating blood was mixed well just prior to sampling to give a homogenous mixture. Aliquots of blood were removed at appropriate time points, added to cold stopping solution, which was methanol containing an appropriate internal standard, and mixed rigorously. The samples were centrifuged at 4000 RPM for 10 minutes after which equal volumes of the supernatant fractions were diluted with cold deionized water. The samples were then ready for analysis.
(§1) A Thermo LX-2 ultra-performance liquid chromatography system coupled with a Sciex API5000 triple quadrupole mass spectrometer was used for the analysis. The payload and drug-linkers were retained and separated by a C18 column and detected by the mass spectrometer. […] Samples were kept in cold stack set at 5° C.
Series [2] is described as follows: In vitro stability, rat liver lysosome incubation.
Method: All linker compounds were solubilized in DMSO to form each 10 mM stock solution. Dosing solution for each linker was prepared by serial dilution of each stock solution using 1:3 acetonitrile:water. All solutions were kept on ice during the experiment.
Rat lysosomes were pre-warmed in a 37° C. water bath in an appropriate volume to collect samples over a time course from 0 minutes through 6 hours. Incubating lysosomes were mixed well just prior to sampling to give a homogenous mixture. Aliquots of lysosomes were removed at appropriate time points, added to cold stopping solution, which was methanol containing an appropriate internal standard, and mixed rigorously. The samples were centrifuged at 4000 RPM for 10 minutes after which equal volumes of supernatant were diluted with cold deionized water. The samples were ready for analysis.
as §1
The nature of series [3]: Solubility of drug-linkers in 20% MeCN/H2O. The note with it: aqueous with cosolvent or surfactant or cyclodextrin.
Test in series [4]: not given
This is another data set of the same source.

Series [5] can be described thus: physchem. Conditions: aqueous with cosolvent or surfactant or cyclodextrin.
The mark [6] stands for this setting: Matrix spiking (time 0 sample, lysosomes pretreated with stopping reagent).

For the compound `C[C@@H]1C[C@H]2[C@@H]3CCC4=CC(=O)C=C[C@]4(C)[C@@]3(F)[C@@H](O)C[C@]2(C)[C@@]1(O)C(=O)CO` [Dexamethasone, dexamethasone, reference compound], the “Calculated Conc. for each compound in human whole blood” value is 1687 nM in series [1] (37° C., 0 m); 2409 nM in series [1] (37° C., 20 m); 2224 nM in series [1] (37° C., 1 hr); 1502 nM in series [1] (37° C., 3 hr); 2792 nM in series [1] (37° C., 6 hr); 2939 nM in series [1] (Matrix spiking (time 0 sample, blood pretreated with stopping reagent)). Besides, the “Calculated Conc. for each compound in rat lysosomal lysate” value in series [2] (37° C., 0 m) is 1456.4 nM; in series [2] (37° C., 5 m), 1851.2 nM; in series [2] (37° C., 10 m), 1640.8 nM; in series [2] (37° C., 15 m) it was 1666.7 nM; in series [2] (37° C., 30 m), 1602.6 nM; in series [2] (37° C., 1 hr), 1576.8 nM. Further, the “Calculated Conc. for each compound in rat lysosomal lysate” value is 1681.0 nM in series [2] (37° C., 2 hr); 1689.7 nM in series [2] (37° C., 3 hr); 1689.8 nM in series [2] (37° C., 6 hr); 2059.0 nM in series [2] (setting [6]).

For `C[C@@H]1C[C@H]2[C@@H]3CCC4=CC(=O)C=C[C@]4(C)[C@@]3(F)[C@@H](O)C[C@]2(C)[C@@]1(O)C(=O)COP(=O)(O)Oc1ccc(NC(=O)COC2C#CCCCCC2)cc1` (stereo partly drawn) [Compound 5-3, 4-(2-(cyclooct-2-yn-1-yloxy)acetamido)phenyl (2-((8S,9R,10S,11S,13S,14S,16R,17R)-9-fluoro-11,17-dihydroxy-10,13,16-trimethyl-3-oxo-6,7,8,9,10,11,12,13,14,15,16,17-dodecahydro-3H-cyclopenta[a]phenanthren-17-yl)-2-oxoethyl) hydrogen phosphate], the solubility in series [3] was greater than 10000 µg/mL. The “Calculated Conc. for each compound in human whole blood” value in series [1] (37° C., 0 m) was 1299 nM; in series [1] (37° C., 5 m), 1251 nM; in series [1] (37° C., 15 m), 1276 nM; in series [1] (37° C., 30 m) it was 1111 nM; in series [1] (37° C., 1 hr) it was 937 nM; in series [1] (37° C., 2 hr), 1480 nM. Besides, the “Calculated Conc. for each compound in rat lysosomal lysate” value in series [2] (37° C., 0 m) is 1394.08 nM; in series [2] (37° C., 5 m), 1295.86 nM; in series [2] (37° C., 10 m) it was 1278.4 nM; in series [2] (37° C., 15 m), 1407.73 nM; in series [2] (37° C., 30 m) it was 1175.39 nM; in series [2] (37° C., 1 hr) it was 970.65 nM. The “Calculated Conc. for each compound in rat lysosomal lysate” value in series [2] (37° C., 2 hr) was 743.45 nM; in series [2] (37° C., 3 hr), 500.41 nM; in series [2] (37° C., 6 hr), 221.03 nM; in series [2] (setting [6]), 2555.29 nM.

For the compound `C[C@@H]1C[C@H]2[C@@H]3CCC4=CC(=O)C=C[C@]4(C)[C@@]3(F)[C@@H](O)C[C@]2(C)[C@@]1(O)C(=O)COP(=O)(O)OP(=O)(O)Oc1ccc(NC(=O)COC2C#CCCCCC2)cc1` (stereo partly shown) [Compound 3-4], the solubility in series [3] was greater than 10000 µg/mL. Further, the “Calculated Conc. for each compound in human whole blood” value in series [1] (37° C., 0 m) is listed as 1382 nM; in series [1] (37° C., 5 m), 1325 nM; in series [1] (37° C., 15 m), 1398 nM; in series [1] (37° C., 30 m), 1250 nM; in series [1] (37° C., 1 hr), 1141 nM; in series [1] (37° C., 2 hr), 1703 nM. The “Calculated Conc. for each compound in rat lysosomal lysate” value in series [2] (37° C., 0 m) is 1252 nM; in series [2] (37° C., 5 m), 501.28 nM; in series [2] (37° C., 10 m), 149.18 nM; in series [2] (setting [6]), 3128.83 nM. In addition, the “detectability of drug-linker in rat lysosomal extract (in words)” value in series [2] (after 10 minutes incubation) is on record as “no longer detectable”.

Consider `C[C@@H]1C[C@H]2[C@@H]3CCC4=CC(=O)C=C[C@]4(C)[C@@]3(F)[C@@H](O)C[C@]2(C)[C@@]1(O)C(=O)COP(=O)(O)OCCNC(=O)COC1C#CCCCCC1` (stereo partly drawn) [Compound 4-3, 2-(2-(cyclooct-2-yn-1-yloxy)acetamido)ethyl (2-((8S,9R,10S,11S,13S,14S,16R,17R)-9-fluoro-11,17-dihydroxy-10,13,16-trimethyl-3-oxo-6,7,8,9,10,11,12,13,14,15,16,17-dodecahydro-3H-cyclopenta[a]phenanthren-17-yl)-2-oxoethyl) hydrogen phosphate], for which the “Calculated Conc. for each compound in human whole blood” value is, setting by setting: (0 min) 1539 nM; (20 min) 1861 nM; (1 h) 1619 nM; (3 h) 1677 nM; (6 h) 2040 nM. Further, the “Calculated Conc. for dexamethasone in human whole blood” value is given as 0 nM (20 min), 0 nM (1 h), 1 nM (3 h) and 3 nM (6 h). Besides, the “Calculated Conc. for dexamethasone in rat lysosomal lysate” value in series [4] (0 min) was 0.9 nM; in series [4] (5 min) it was 14.5 nM; in series [4] (10 min), 14.2 nM; in series [4] (15 min) it was 22.3 nM; in series [4] (30 min) it was 28.9 nM; in series [4] (1 h) it was 41.6 nM. The “Calculated Conc. for dexamethasone in rat lysosomal lysate” value is reported as 72.5 nM in series [4] (2 h), 90.2 nM in series [4] (3 h) and 141.9 nM in series [4] (6 h). The “Calculated Conc. for each compound in rat lysosomal lysate” value in series [4] (0 min) was 888.8 nM; in series [4] (5 min), 1156.1 nM; in series [4] (10 min), 983.4 nM; in series [4] (15 min), 1032.6 nM; in series [4] (30 min), 980.1 nM; in series [4] (1 h), 882.4 nM. Moreover, the results for the “Calculated Conc. for each compound in rat lysosomal lysate” value in series [4] (2 h), in series [4] (3 h) and in series [4] (6 h) were 880.1 nM, 903.8 nM and 858.9 nM, respectively. This compound also had a solubility in series [5] greater than 10000 µg/mL.
